Measurements as given in patent publication US20250161299A1, “ORAL PCLX-001 IN THE TREATMENT OF HUMAN CANCER” (PACYLEX PHARMACEUTICALS INC., priority 2022, published 2025).
Read-outs that look alike come from different tables or passages of the source.

Assay: Phase I trial of oral PCLX-001: plasma pharmacokinetics, noncompartmental analysis (Phoenix WinNonlin 8.3)
Type: in vivo, human
Conditions: for AUC(0-t): read-out: AUClast; for Tmax: read-out: Tmax
From the text: The clinical trial is entitled “Phase I Trial of PCLX-001 in B-cell Non-Hodgkin Lymphoma and Advanced Solid Malignancies” and registered at clinicaltrials.gov as NCT04836195. It is a phase I dose-escalation study of oral PCLX-001, conducted in a multicenter, non-randomized, open-label, non-controlled design. The study is comprised of two parts: Part A (single-agent dose escalation) and Part B (single-agent expansion cohorts).
Patients are to receive daily oral PCLX-001 on 28-day cycles, beginning with a starting dose of 20 mg.
[…] After dosing, the blood samples (volumes 3 mL) were serially collected into heparinized tubes from a right forearm butterfly cannula. All blood fluid specimens were frozen and later assayed using a validated UHPLC-MS detection method.
Noncompartmental pharmacokinetic analysis was performed using Phoenix WinNonlin 8.3 using trapezoidal rule and linear up log down methodology. WinNonlin was allowed to pick optimal terminal phases.
Nonparametric superposition was performed using Phoenix WinNonlin Nonparametric Superposition to predict steady state data based upon Day 1 data for each patient. It utilized the 8- and 24-hour time points for estimation of terminal phase for the purposes of this exercise. We simulated 20 mg daily oral dosing and simulations were conducted out to steady state. Results are show in FIGS. 5, 6, and 7.
In the non-compartmental analysis, Phoenix WinNonlin 8.3 trapezoidal rule was used, with linear up log down method. This allowed WinNonlin to pick optimal terminal phase (WinNonlin will accept Rsq adjusted to >0.7). Additional analysis to assess adequate fie included visual inspection of data, and AUCextrap should be <15%.
Phoenix WinNonlin 8.3 trapezoidal rule. Used linear up log down method. Allowed WinNonlin to pick optimal terminal phase (WinNonlin will accept Rsq adjusted >0.7).
Other analysis to assess adequate fit. Visual inspection of data. AUCextrap should be <15%.

[1] = Table 1A, Patient 115-002-001 (Patient 1), Day 1, 20 mg oral daily
[2] = human, plasma, oral, 20 mg, Table 4, Mean, not on Pantoprazole, 20 mg, N 3, Day 1
[3] = human, plasma, oral, 20 mg, Table 4, Mean, not on Pantoprazole, 20 mg, N 3, Day 15
[4] = human, plasma, oral, 40 mg, Table 4, not on Pantoprazole, 40 mg, N 1, Day 1
[5] = human, plasma, oral, 40 mg, Table 4, not on Pantoprazole, 40 mg, N 1, Day 15
[6] = human, plasma, oral, 40 mg, Table 5, on Pantoprazole, 40 mg, N 1, Day 1
[7] = human, plasma, oral, 40 mg, Table 5, on Pantoprazole, 40 mg, N 1, Day 15
[8] = human, plasma, oral, 70 mg, Table 4, not on Pantoprazole, 70 mg, N 1, Day 1

## Cc1c(NS(=O)(=O)c2c(Cl)cc(-c3ccnc(N4CCNCC4)c3)cc2Cl)c(CC(C)C)nn1C [PCLX-001, 2,6-dichloro-N-(3-isobutyl-1,5-dimethyl-1H-pyrazol-4-yl)-4-(2-(piperazin-1-yl)pyridin-4-yl)benzene sulfonamide]
Patient 1, by day 15, 20 mg oral daily
  systemic accumulation of drug: without systemic accumulation of drug
Patient 2, 20 mg oral daily
  drug accumulation: No significant drug accumulation
[1]
  AUCextrep: 15.9%
  half-life: 8.5 h
Table 1A, Patient 115-002-001 (Patient 1), Day 15, 20 mg oral daily
  AUCextrep: 21.9%
Table 1A, Patient 115-002-002 (Patient 2), Day 15, 20 mg oral daily
  AUCextrep: 20.4%
Table 1A, Patient 115-002-004 (Patient 3), Day 1, 20 mg oral daily
  AUCextrep: 5.41%
Table 1A, Patient 115-002-004 (Patient 3), Day 15, 20 mg oral daily
  AUCextrep: 11.3%
Table 6, Patient 115-002-001, Day 1, 20 mg QD oral, Pantoprazole No
  AUCextrap: 15.3%
Table 6, Patient 115-002-001, Day 15, 20 mg QD oral, Pantoprazole No
  AUCextrap: 23.7%
Table 6, Patient 115-002-002, Day 15, 20 mg QD oral, Pantoprazole No
  AUCextrap: 17.5%
Table 6, Patient 115-002-004, Day 1, 20 mg QD oral, Pantoprazole No
  AUCextrap: 5.1%
Table 6, Patient 115-002-004, Day 15, 20 mg QD oral, Pantoprazole No
  AUCextrap: 10.0%
Table 7, Patient 115-002-005, Day 1, 40 mg QD oral, Pantoprazole Yes
  AUCextrap: 9.5%
Table 7, Patient 115-002-005, Day 15, 40 mg QD oral, Pantoprazole Yes
  AUCextrap: 5.3%
Table 7, Patient 115-009-001, Day 1, 40 mg QD oral, Pantoprazole No
  AUCextrap: 20.1%
Table 7, Patient 115-009-001, Day 15, 40 mg QD oral, Pantoprazole No
  AUCextrap: 24.9%
Table 8, Patient 115-024-001, Day 1, 70 mg QD oral, Pantoprazole No
  AUCextrap: 16.8%
Table 9, Patient 115-002-009, Day 1, 100 mg QD oral, Pantoprazole No
  AUCextrap: 4.4%
Table 9, Patient 115-002-010, Day 1, 100 mg QD oral, Pantoprazole No
  AUCextrap: 10.9%
Table 9, Patient 115-002-011, Day 1, 100 mg QD oral, Pantoprazole No
  AUCextrap: 18.4%
Table 9, Patient 115-002-012, Day 15, 100 mg QD oral, Pantoprazole No
  AUCextrap: 12.2%
Table 10, Patient 115-002-006, Day 1, Dose 140 mg QD oral, Concomitant Pantoprazole No
  AUCextrap: 5.48%
Table 10, Patient 115-002-006, Day 15, Dose 140 mg QD oral, Concomitant Pantoprazole No
  AUCextrap: 22.7%
Table 10, Patient 115-024-005, Day 1, Dose 140 mg QD oral, Concomitant Pantoprazole Yes
  AUCextrap: 12.1%
Table 10, Patient 115-024-005, Day 15, Dose 140 mg QD oral, Concomitant Pantoprazole Yes
  AUCextrap: 37.9%
Table 10, Patient 115-024-013, Day 1, Dose 140 mg QD oral, Concomitant Pantoprazole Yes
  AUCextrap: 12.5%
Table 10, Patient 115-024-013, Day 15, Dose 140 mg QD oral, Concomitant Pantoprazole Yes
  AUCextrap: 39.9%
Dose range of 20 to 140 mg
  dose proportionality of systemic exposure: dose proportional
human, plasma, oral, 20 mg, Table 3, human (patient 1), 20 mg/75 kg = 0.27 mg/kg
  Cmax: 479 ng/mL
human, plasma, oral, 20 mg, Table 3, human (patient 1), 20 mg/75 kg = 0.27 mg/kg, read-out: Terminal elimination half-life (converted)
  half-life: 16 h
human, plasma, oral, 20 mg, Table 4, Mean (CV), not on Pantoprazole, 20 mg, N 3, Day 1
  Cmax: 276 ng/mL
human, plasma, oral, 20 mg, Table 4, Mean (CV), not on Pantoprazole, 20 mg, N 3, Day 1, read-out: t½ (converted)
  half-life: 6.93 h
human, plasma, oral, 20 mg, Table 4, Mean (CV), not on Pantoprazole, 20 mg, N 3, Day 15
  Cmax: 359 ng/mL
human, plasma, oral, 20 mg, Table 4, Mean (CV), not on Pantoprazole, 20 mg, N 3, Day 15, read-out: t½ (converted)
  half-life: 8.93 h
[2]
  AUC(0-inf): 1960 ng·h/mL
  AUC(0-t): 1600 ng·h/mL
[3]
  AUC(0-inf): 2720 ng·h/mL
  AUC(0-t): 2220 ng·h/mL
human, plasma, oral, 20 mg, Table 4, median (min, max), not on Pantoprazole, 20 mg, N 3, Day 1
  Tmax: 2 h
human, plasma, oral, 20 mg, Table 4, median (min, max), not on Pantoprazole, 20 mg, N 3, Day 15
  Tmax: 1 h
[4]
  AUC(0-inf): 12600 ng·h/mL
  Cmax: 1670 ng/mL
  AUC(0-t): 10100 ng·h/mL
  Tmax: 1 h
human, plasma, oral, 40 mg, Table 4, not on Pantoprazole, 40 mg, N 1, Day 1, read-out: t½ (converted)
  half-life: 10.8 h
[5]
  AUC(0-inf): 18300 ng·h/mL
  Cmax: 1480 ng/mL
  AUC(0-t): 13700 ng·h/mL
  Tmax: 2 h
human, plasma, oral, 40 mg, Table 4, not on Pantoprazole, 40 mg, N 1, Day 15, read-out: t½ (converted)
  half-life: 11.9 h
[6]
  AUC(0-inf): 4900 ng·h/mL
  Cmax: 868 ng/mL
  AUC(0-t): 4430 ng·h/mL
  Tmax: 0.5 h
human, plasma, oral, 40 mg, Table 5, on Pantoprazole, 40 mg, N 1, Day 1, read-out: t½ (converted)
  half-life: 7.5 h
[7]
  AUC(0-inf): 7060 ng·h/mL
  Cmax: 802 ng/mL
  AUC(0-t): 6680 ng·h/mL
  Tmax: 2 h
human, plasma, oral, 40 mg, Table 5, on Pantoprazole, 40 mg, N 1, Day 15, read-out: t½ (converted)
  half-life: 5.54 h
[8]
  AUC(0-inf): 11300 ng·h/mL
  Cmax: 1430 ng/mL
  AUC(0-t): 9400 ng·h/mL
  Tmax: 1 h
human, plasma, oral, 70 mg, Table 4, not on Pantoprazole, 70 mg, N 1, Day 1, read-out: t½ (converted)
  half-life: 9.44 h
